{"source": "ChEMBL document CHEMBL3124785", "about": "“Discovery of 2-(1H-indazol-1-yl)-thiazole derivatives as selective EP(1) receptor antagonists for treatment of overactive bladder by core structure replacement” (Bioorg Med Chem Lett, 2014)", "key": {"[1]": {"experiment": "Cmax in rat at 10 mg/kg, po", "type": "ADME, organism-based", "parameters": "dose 10 mg/kg, route oral", "settings": "in vivo"}, "[2]": {"experiment": "Solubility of the compound at pH 6.8", "type": "physicochemical", "settings": "buffer"}, "[3]": {"experiment": "Oral bioavailability in rat at 10 mg/kg", "type": "ADME, organism-based", "settings": "in vivo"}, "[4]": {"experiment": "Apparent permeability in MDCK cells", "type": "ADME, cell-based, Canis lupus familiaris", "settings": "dog"}, "[5]": {"experiment": "Solubility of the compound in water", "type": "physicochemical"}, "[6]": {"experiment": "AUC (0 to infinity) in rat at 10 mg/kg, po", "type": "ADME, organism-based", "parameters": "time infinity, dose 10 mg/kg, route oral", "settings": "plasma"}}, "data": [{"smiles": "O=C(O)c1csc(-n2nc(-c3ccccc3)c3ccc(C(F)(F)F)cc32)n1", "values": [{"measurement": "Cmax", "setting": "[1]", "value": 5.34, "unit": "µM"}, {"measurement": "solubility", "setting": "[2]", "value": 123, "unit": "µg/mL"}, {"measurement": "bioavailability", "setting": "[3]", "value": 31, "unit": "%"}, {"measurement": "Papp", "setting": "[4]", "value": 17.8, "unit": "×10⁻⁶ cm/s"}, {"measurement": "solubility", "setting": "[5]", "value": 37, "unit": "µg/mL"}, {"measurement": "AUC(0-inf)", "setting": "[6]", "value": 9.27, "unit": "µM·h"}]}]}
